# Results from ChEMBL document CHEMBL5113512, “β-Nitrostyrene derivatives as broad range potential antifungal agents targeting fungal cell wall” (2022).
# Activity calls are given as the source filed them. The rule behind the calls is not given here.
# Key:
# [1] = test system: Candida albicans; assay: Antifungal activity against Candida albicans ATCC 24433 overexpressing transporter protein GU4 assessed as inhibition of fungal growth by broth microdilution method; assay type: functional
# [2] = test system: Candida albicans; assay: Antifungal activity against Candida albicans ATCC 24433 overexpressing ADCaMDR1-GFP assessed as inhibition of fungal growth by broth microdilution method; assay type: functional
# [3] = test system: Candida; assay: Upregulation of ARG5 gene expression in Candida cells; assay type: functional, cell-based
# [4] = test system: Candida; assay: Downregulation of GUT1 gene expression in Candida cells; assay type: functional, cell-based
# [5] = test system: Candida; assay: Upregulation of HYM1 gene expression in Candida cells; assay type: functional, cell-based
# [6] = test system: Candida albicans; assay: Synergistic antifungal activity against Candida albicans ATCC 24433 overexpressing ADCDR1-GFP assessed as fractional inhibitory concentration index incubated for 48 hrs in presence of caspofungin by checker board assay; assay type: functional
# [7] = test system: Candida; assay: Downregulation of CCT6 gene expression in Candida cells; assay type: functional, cell-based
# [8] = test system: Candida albicans; assay: Synergistic antifungal activity against wild type Candida albicans SN152 assessed as fractional inhibitory concentration index incubated for 48 hrs in presence of Amphotericin B by checker board assay; assay type: functional
# [9] = test system: Candida albicans; assay: Inhibition of drug efflux in Candida albicans ATCC 24433 overexpressing AD(1-8)u- assessed as […] in nile red efflux incubated for 30 mins by flow cytometry; assay type: functional
# [10] = test system: Candida albicans; assay: Downregulation of ZCF19 gene expression in Candida albicans ATCC 24433 by qRT-PCR analysis; assay type: functional
# [11] = test system: Candida albicans; assay: Downregulation of ATO5 gene expression in Candida albicans ATCC 24433 by qRT-PCR analysis; assay type: functional
# [12] = test system: Candida albicans; assay: Inhibition of drug efflux in Candida albicans ATCC 24433 overexpressing ADCDR1-GFP assessed as reduction in rhodamine 6g efflux preincubated for 45 mins followed by substrate addition and measured after 30 mins; assay type: functional; conditions: dose 0.1-100 µg/ml, time 75.0 min, DDE = dose-dependent effect
# [13] = test system: Candida; assay: Downregulation of PGA57 gene expression in Candida cells; assay type: functional, cell-based
# [14] = test system: Candida albicans; assay: Inhibition of drug efflux in Candida albicans ATCC 24433 overexpressing ADCaMDR1-GF assessed as […] in nile red efflux incubated for 30 mins by flow cytometry; assay type: functional
# [15] = test system: Candida albicans; assay: Synergistic antifungal activity against Candida albicans ATCC 24433 assessed as inhibition of fungal growth incubated for 48 hrs in presence of Congo red by checker board assay; assay type: functional
# [16] = test system: Candida; assay: Downregulation of CDC4 gene expression in Candida cells; assay type: functional, cell-based
# [17] = test system: [Candida] auris; assay: Antifungal activity against Candida auris 102 assessed as inhibition of fungal growth by broth microdilution method; assay type: functional; conditions: Candidozyma auris
# [18] = test system: Candida albicans; assay: Synergistic antifungal activity against Candida albicans SN152 harboring CAS5 mutant assessed as fluconazole MIC incubated for 48 hrs by checker board assay; assay type: functional
# [19] = test system: Candida albicans; assay: Synergistic antifungal activity against Candida albicans ATCC 24433 assessed as fractional inhibitory concentration index incubated for 48 hrs in presence of SDS by checker board assay; assay type: functional
# [20] = test system: Candida albicans; assay: Synergistic antifungal activity against wild type Candida albicans SN152 assessed as fractional inhibitory concentration index incubated for 48 hrs in presence of fluconazole by checker board assay; assay type: functional
# [21] = test system: Candida parapsilosis; assay: Synergistic antifungal activity against Candida parapsilosis ATCC 90018 assessed as Calcoflour White MIC incubated for 48 hrs by checker board assay; assay type: functional; conditions: Lodderomyces parapsilosis
# [22] = test system: [Candida] auris; assay: Synergistic antifungal activity against Candida auris CBS10913 assessed as fractional inhibitory concentration index incubated for 48 hrs in presence of Congo red by checker board assay; assay type: functional, Candidozyma auris
# [23] = test system: Candida albicans; assay: Synergistic antifungal activity against Candida albicans ATCC 24433 assessed as SDS MIC incubated for 48 hrs by checker board assay; assay type: functional
# [24] = test system: Cell membrane; assay: Disruption of membrane integrity in Candida albicans ATCC 24433 assessed as cell deformation measured after 30 mins by SEM analysis; assay type: subcellular
# [25] = test system: Candida; assay: Downregulation of PGA48 gene expression in Candida cells; assay type: functional, cell-based
# [26] = test system: Candida albicans; assay: Synergistic antifungal activity against Candida albicans SN152 harboring CAS5 mutant assessed as inhibition of fungal growth incubated for 48 hrs in presence of fluconazole by checker board assay; assay type: functional
# [27] = test system: [Candida] auris; assay: Synergistic antifungal activity against Candida auris CBS10913 assessed as fractional inhibitory concentration index incubated for 48 hrs in presence of SDS by checker board assay; assay type: functional, Candidozyma auris
# [28] = test system: Candida albicans; assay: Synergistic antifungal activity against wild type Candida albicans SN152 assessed as fractional inhibitory concentration index incubated for 48 hrs in presence of Caspofungin by checker board assay; assay type: functional
# [29] = test system: Candida parapsilosis; assay: Synergistic antifungal activity against Candida parapsilosis ATCC 90018 assessed as Congo red MIC incubated for 48 hrs by checker board assay; assay type: functional; conditions: Lodderomyces parapsilosis
# [30] = test system: Candida albicans; assay: Upregulation of IFF8 gene expression in Candida albicans ATCC 24433 by qRT-PCR analysis; assay type: functional
# [31] = test system: Candida parapsilosis; assay: Synergistic antifungal activity against Candida parapsilosis ATCC 90018 assessed as fractional inhibitory concentration index incubated for 48 hrs in presence of SDS by checker board assay; assay type: functional
# [32] = test system: Candida albicans; assay: Antifungal activity against Candida albicans ATCC 24433 assessed as inhibition of fungal growth by broth microdilution method; assay type: functional
# [33] = test system: Candida albicans; assay: Synergistic antifungal activity against Candida albicans SN152 harboring CAS5 mutant assessed as inhibition of fungal growth incubated for 48 hrs in presence of Caspofungin by checker board assay; assay type: functional
# [34] = test system: Candida albicans; assay: Synergistic antifungal activity against wild type Candida albicans SN152 assessed as inhibition of fungal growth incubated for 48 hrs in presence of Caspofungin by checker board assay; assay type: functional
# [35] = test system: Candida; assay: Upregulation of ARG2 gene expression in Candida cells; assay type: functional, cell-based
# [36] = test system: Candida albicans; assay: Inhibition of drug efflux in Candida albicans ATCC 24433 overexpressing ADPDR5-GFP assessed as reduction in rhodamine 6g efflux preincubated for 45 mins followed by substrate addition and measured after 30 mins; assay type: functional; conditions: dose 0.1-100 µg/ml, time 75.0 min, DDE = dose-dependent effect
# [37] = test system: Candida; assay: Downregulation of CCT3 gene expression in Candida cells; assay type: functional, cell-based
# [38] = test system: Candida; assay: Upregulation of VPH2 gene expression in Candida cells; assay type: functional, cell-based
# [39] = test system: Candida albicans; assay: Antifungal activity against Candida albicans ATCC 24433 overexpressing ADPDR5-GFP assessed as inhibition of fungal growth by broth microdilution method; assay type: functional
# [40] = test system: Cell membrane; assay: Disruption of membrane integrity in Candida auris CBS10913 assessed as cell surface perturbations measured after 3 hrs by SEM analysis; assay type: subcellular; conditions: Candidozyma auris
# [41] = test system: Candida albicans; assay: Antifungal activity against Candida albicans ATCC 24433 overexpressing transporter protein F2 assessed as inhibition of fungal growth by broth microdilution method; assay type: functional
# [42] = test system: Candida; assay: Downregulation of CLN3 gene expression in Candida cells; assay type: functional, cell-based
# [43] = test system: Candida albicans; assay: Antifungal activity against Candida albicans ATCC 24433 overexpressing transporter protein F5 assessed as inhibition of fungal growth by broth microdilution method; assay type: functional
# [44] = test system: Candida albicans; assay: Antifungal activity against Candida albicans ATCC 24433 overexpressing ADCDR1-GFP assessed as inhibition of fungal growth by broth microdilution method; assay type: functional
# [45] = test system: Candida albicans; assay: Synergistic antifungal activity against Candida albicans SN152 harboring CAS5 mutant assessed as fractional inhibitory concentration index incubated for 48 hrs in presence of fluconazole by checker board assay; assay type: functional
# [46] = test system: Candida albicans; assay: Synergistic antifungal activity against Candida albicans ATCC 24433 assessed as inhibition of fungal growth incubated for 48 hrs in presence of SDS by checker board assay; assay type: functional
# [47] = test system: Candida; assay: Downregulation of CDC42 gene expression in Candida cells; assay type: functional, cell-based
structure (smiles),measurement,setting,value
O=[N+]([O-])/C=C/c1ccc(O)cc1,MIC80,[1],4 µg/mL
same,MIC80,[2],4 µg/mL
same,Activity,[3],Active
same,Activity,[4],Active
same,Activity,[5],Active
same,fractional inhibitory concentration index (FICI),[6],<0.5
same,Activity,[7],Active
same,fractional inhibitory concentration index (FICI),[8],0.507
same,inhibition,[9],Active
same,Activity,[10],Active
same,Activity,[11],Active
same,inhibition,[12],Dde
same,Activity,[13],Active
same,inhibition,[14],Active
same,MIC,[15],0.5 µg/mL
same,Activity,[16],Active
same,MIC80,[17],4 µg/mL
same,MIC,[18],0.125 µg/mL
same,fractional inhibitory concentration index (FICI),[19],0.5
same,fractional inhibitory concentration index (FICI),[20],0.25
same,MIC,[21],25 µg/mL
same,fractional inhibitory concentration index (FICI),[22],0.3125
same,MIC,[23],12.5 µg/mL
same,Activity,[24],Active
same,Activity,[25],Active
same,MIC,[26],1 ng/mL
same,fractional inhibitory concentration index (FICI),[27],0.5
same,fractional inhibitory concentration index (FICI),[28],0.257
same,MIC,[29],6.25 µg/mL
same,Activity,[30],Active
same,fractional inhibitory concentration index (FICI),[31],0.375
same,MIC80,[32],4 µg/mL
same,MIC,[33],1.9 ng/mL
same,MIC,[34],0.0625 µg/mL
same,Activity,[35],Active
same,inhibition,[36],Dde
same,Activity,[37],Active
same,Activity,[38],Active
same,MIC80,[39],4 µg/mL
same,Activity,[40],Active
same,MIC80,[41],2 µg/mL
same,Activity,[42],Active
same,MIC80,[43],2 µg/mL
same,MIC80,[44],4 µg/mL
same,fractional inhibitory concentration index (FICI),[45],0.126
same,MIC,[46],1 µg/mL
same,Activity,[47],Active
